# Assays:
# isolated pig islets = test: In vitro islet functionality (24 hr incubation at G5, G15, G15+Fsk; insulin/glucagon RIA); format: cell-based
# Protocol: The following steps were performed with the samples kept on ice. […] The samples were then sonicated 4×20 seconds (Sonifier B 12 [Branson Sonic Power Company, Danbury, Conn., USA]) and centrifugated 10 minutes at 4° C. at 1500 rpm. The first supernatant formed was removed and kept at −20° C. […] The samples were then kept at −20° C. overnight. After a step of centrifugation 10 minutes at 4° C. at 1500 rpm, the second supernatant was removed and kept at −20° C. […] The three supernatants were then pooled and constituted the pancreas extract. Human insulin specific RIA KIT and Glucagon RIA KIT (Millipore, Billerica, Mass., USA) were used for the determination of the hormonal content in human/pig pancreatic extractions as well as in isolated islets (see below). The content of insulin and glucagon in the extracts was performed following the instructions of the manufacturer. […] After incubation overnight at room temperature, 1 mL of precipitating reagent were added, followed by incubation 20 minutes at 4° C. The samples were then centrifuged 20 minutes at 2000-3000×g at 4° C.
# Three replicates per concentration were performed. Media were thereafter recovered for insulin and glucagon quantification and islets were transferred in acid-ethanol for hormones extraction and quantification by radioimmuno-assay (see above).
# [1] = test system: islets from wild-type pigs; test: Insulin release of wild-type pig islets with exogenous GLP-1; format: cell-based
# Protocol: After isolation from wild-type pigs, islets were incubated overnight at 37° C., 5% CO2/95% O2 in RMPI medium containing 10% heat-inactivated FCS, 100 IU/ml penicillin, 100 μg/ml streptomycin and 5 mmol/l glucose. The function of islets in different culture conditions was assessed by 2 or 24 hr incubation of 200 islets in 1.5 ml buffer containing (i) 1 mmol/l glucose, (ii) 15 mmol/l glucose, (iii) 15 mmol/l glucose+[…] Forskolin (fsk) (Calbiochem-Behring, San Diego, Calif.) (added from a 1 mmol/l stock solution in DMSO), (iv) 15 mmol/l glucose+1 μmol/l fsk, (v) 15 mmol/l glucose+5 nM GLP-1 (Sigma Aldrich), (vi) 15 mmol/l glucose+50 nM GLP-1, (vii) 15 mmol/l glucose+500 nM GLP-1, (viii) 15 mmol/l glucose+1 μmol/l fsk+50 nM GLP-1. Three replicates per concentration were performed. Media were thereafter recovered for insulin quantification and islets were transferred in acid-ethanol for hormones extraction and quantification by radioimmuno-assay (Human insulin RIA kit, Millipore, Billerica, Mass., USA).
# adult pig islets = conditions: cited from earlier work
# [2] = 15 mmol/l glucose + 1 μmol/l Fsk, native and treated pig islets
compound,measurement,setting,value
"C=C[C@@]1(C)CC(=O)[C@]2(O)[C@@]3(C)[C@@H](O)CCC(C)(C)[C@@H]3[C@H](O)[C@H](OC(C)=O)[C@@]2(C)O1 [Fsk, Forskolin]",increase in insulin secretion after G15+Fsk in comparison with G5 and G15,"isolated pig islets; 1 μmol/l Fsk, native and treated islets",2 to 4 fold
same,effect on glucagon secretion or content,isolated pig islets; [2],No effect
same,effect on insulin content,isolated pig islets; [2],No effect
GLP-1: exogenous GLP-1 (Sigma Aldrich) added to wild-type pig islets,increase of insulin release,"[1]; 500 nM GLP-1, glucose 15 mM, 24 hrs incubation",12%
same,stimulation index (ratio of insulin release at glucose 15 mM vs. 1 mM),[1]; GLP-1 at 500 nM,significant increase
same,increase of insulin release in comparison to glucose 15 mM alone,"[1]; GLP-1 at 50-500 nM, glucose 15 mM, 2 hrs incubation",10%
glucagon: peptide hormone added to adult pig islets in cited literature studies,increase of stimulation index,adult pig islets; acute exposure to 1 or 10 μM glucagon,30%
same,basal insulin release in comparison with control situation,adult pig islets; islets cultured in the presence of 10 μM glucagon,2 fold

# Source: patent US20130336940A1, “MODIFIED PIG ISLETS FOR DIABETES TREATMENT” (UNIVERSITE CATHOLIQUE DE LOUVAIN, priority 2011, published 2013)
